Assay in all cases: NCI-60 cell line screen, 48 h
For test [1], the system named is SK-MEL-28.
In test [2] the test system is SF-268.
Test [3] concerns SNB-75.
Test [4] deals with T47D.
Test [5] relates to HT-29.
Test [6] relates to SNB-19.
Test [7] relates to SN12C.
Test [8] concerns K562.
Test [9] concerns PC-3.
The subject of test [10] is NCI-H23.
For test [11], the system named is OVCAR-4.
Test [12] deals with BT-549.
For test [13], the system named is ACHN.
The test system of test [14] is HOP-62.
Test [15] relates to 786-0.
Test [16] deals with SF-539.

Molecules are shown by their SMILES.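 Results reflect a 48-hour exposure of cells in 96-well plates to compound at five concentrations. At the GI50, growth is halved.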 Active and inactive are the calls of the source. Rule as the data show it: active = GI50 up to about 1.1 µM and inactive = higher.

`Cc1cc2c(cc1-c1cc3c(cc1C)C(C(C)C)=C(O)C(=O)/C3=C\Nc1cccc3c(N)cccc13)/C(=C/Nc1cccc3c(N)cccc13)C(=O)C(O)=C2C(C)C`: the GI50 in [1], in test [2], in test [3], in test [4], in test [5] and in test [6] was > 100 µM (inactive) each time. Moreover, the GI50 in [7] was > 100 µM (inactive); in test [8], 54.3 µM (inactive); in test [9], 79.8 µM (inactive); in test [10], > 100 µM (inactive); in test [11] it was > 100 µM (inactive); in test [12] it was > 100 µM (inactive). Also, the GI50 in [13], in test [14] and in [15] was > 100 µM (inactive) throughout.

Regarding `O=c1[nH]c(=S)c2cc3c(=S)[nH]c(=O)n(CCC(c4ccccc4)(c4ccccc4)c4ccccc4)c3nc2n1CCC(c1ccccc1)(c1ccccc1)c1ccccc1`, the GI50 in test [1], in [2], in [3], in test [4], in test [6] and in test [7] was > 100 µM (inactive) in each case. The GI50 in [8] is 24.8 µM (inactive); in [9], > 100 µM (inactive); in test [10], > 100 µM (inactive); in [11], > 100 µM (inactive); in test [12] it was > 100 µM (inactive); in [13], > 100 µM (inactive). Moreover, the GI50 in test [14] and in test [15] was > 100 µM (inactive) in each case.

Take `C1CNOCCCONCCCNOCCCONC1`: the GI50 in test [1] is > 100 µM (inactive); in [2], 85.9 µM (inactive); in test [3] it was > 100 µM (inactive); in [4] it was 11.3 µM (inactive); in test [5], > 100 µM (inactive); in [6], 57.3 µM (inactive). Also, the GI50 in test [7] was 77.4 µM (inactive); in test [8], > 100 µM (inactive); in test [9], 27.6 µM (inactive); in test [10], > 100 µM (inactive); in test [11] it was 70.3 µM (inactive); in test [12], 69.5 µM (inactive). In addition, the values for the GI50 in [13], in test [14] and in test [15] were > 100 µM (inactive), 50.1 µM (inactive) and > 100 µM (inactive), respectively.

For `O=C1C(NCCN2CCOCC2)=C(Cl)C(=O)c2ncccc21`, the GI50 in test [1] was 1.61 µM (inactive); in [2] it was 1.52 µM (inactive); in test [3] it was 1.12 µM (inactive); in test [4], 1.39 µM (inactive); in [16], 1.18 µM (inactive); in [5], 0.637 µM (active). The GI50 in [6] is 1.42 µM (inactive); in test [7] it was 1.36 µM (inactive); in test [8] it was 0.179 µM (active); in [9], 0.289 µM (active); in [10], 0.556 µM (active); in test [12], 1.29 µM (inactive). Besides, the GI50 in [13] was 1.1 µM (active); in [14], 1.6 µM (inactive); in [15], 0.431 µM (active).

For the molecule `OC1OC(c2ccc[nH]2)C(F)(F)C(F)(F)C1(F)F` (centres undefined), the GI50 is > 100 µM (inactive) in test [1]; > 100 µM (inactive) in test [2]; 60.8 µM (inactive) in test [3]; > 100 µM (inactive) in [4]; > 100 µM (inactive) in test [16]; > 100 µM (inactive) in test [5]. The GI50 in test [6] was > 100 µM (inactive); in [7], > 100 µM (inactive); in test [9] it was > 100 µM (inactive); in test [11], 73.1 µM (inactive); in test [12], > 100 µM (inactive); in test [13] it was > 100 µM (inactive). The GI50 in test [14] and in test [15] was > 100 µM (inactive) throughout.

With `CN(C)c1ccc(/C=C2\N=C(NNc3ccccc3)NC2=O)cc1`, the GI50 in test [1] is 29.1 µM (inactive); in test [2], 27.3 µM (inactive); in test [3], 25.5 µM (inactive); in test [4], 11.7 µM (inactive); in [16], 19.5 µM (inactive); in test [5], 16.9 µM (inactive). In addition, the GI50 is 35.6 µM (inactive) in test [6]; 17.7 µM (inactive) in test [7]; 13.2 µM (inactive) in test [9]; 20 µM (inactive) in test [10]; 24.2 µM (inactive) in [11]; 30 µM (inactive) in test [12]. Further, the results for the GI50 in test [13], in test [14] and in test [15] were 20.2 µM (inactive), 30.3 µM (inactive) and 17.9 µM (inactive), respectively.

On to `COc1c2cc([N+](=O)[O-])cc1CNC(=O)CN1CCOCCOCCN(CCOCCOCC1)CC(=O)NC2`, for which the GI50 in test [1], in test [2], in [3], in test [4], in test [5] and in test [6] was > 100 µM (inactive) in each case. Moreover, the GI50 in [7], in test [8], in [9], in test [10], in test [11] and in test [12] was > 100 µM (inactive) in each case. Further, the GI50 in test [13], in [14] and in [15] was > 100 µM (inactive) each time.

For `N[C@H](C(=O)O)[C@@H]1CC(Br)=NO1`, the GI50 was > 100 µM (inactive) in [2]; 62.4 µM (inactive) in [3]; > 100 µM (inactive) in test [4]; 97.7 µM (inactive) in test [16]; 57.5 µM (inactive) in test [5]; > 100 µM (inactive) in test [6]. Further, the GI50 in [9] is > 100 µM (inactive); in [10], > 100 µM (inactive); in test [11] it was > 100 µM (inactive); in test [12], 88.9 µM (inactive); in test [13] it was 73.5 µM (inactive); in test [14], 61.9 µM (inactive). Moreover, the GI50 in test [15] is 99.8 µM (inactive).

Regarding `COc1ccc2c(c1OC)C(C(Cl)(Cl)Cl)N1CCc3cc4c(cc3C1=C2)OCO4` (centres undefined), the GI50 in test [1] was 12 µM (inactive); in test [2] it was 3.41 µM (inactive); in test [3] it was 46.5 µM (inactive); in test [4], 10.8 µM (inactive); in [16], 35 µM (inactive); in test [5], 25.8 µM (inactive). Besides, the GI50 in test [6] is 5.82 µM (inactive); in test [7] it was 13.1 µM (inactive); in test [9], 24.7 µM (inactive); in test [10], 12.9 µM (inactive); in [11], 5.93 µM (inactive); in test [12], 1.03 µM (active). Further, the GI50 in [13] was 22.9 µM (inactive); in [15] it was 15.2 µM (inactive).

`O=C1CNc2cc(N3CCN(c4ccccc4)CC3)ccc2N1`: the GI50 in test [1], in [2], in test [3], in [4], in [5] and in test [6] was > 100 µM (inactive) each time. In addition, the GI50 in [8], in test [9], in test [10], in test [11], in test [12] and in test [13] was > 100 µM (inactive) throughout. The GI50 in [14] and in test [15] was > 100 µM (inactive) throughout.

For the origin of these results see ChEMBL document CHEMBL1201862, “PubChem BioAssay data set” (2004).
